Laboratory results from patent US8916552B2, “Pharmaceutical combinations” (Astex Therapeutics Limited, priority 2006, dated 2014).
Counter-ions that a name gives are not always drawn. Like-named read-outs stand apart in the source and are kept apart here.

Experiments:
HCT116 cell line = assay: Anti-proliferative activity, Alamar Blue assay; assay type: cell-based; conditions: Homo sapiens, HCT-116, 72 h, read-out: IC50 against the HCT116 cell line
Description: The anti-proliferative activities of compounds for use in the combinations of the invention can be determined by measuring the ability of the compounds to inhibition of cell growth in a number of cell lines such as the human colon cancer cell line HCT116. […] The method is based on the ability of viable cells to reduce resazurin to its fluorescent product resorufin. […] The number of viable cells is determined by Alamar Blue assay as before. Cell lines can be obtained from the ECACC (European Collection of cell Cultures).

PKC = conditions: data published 2002; read-out: IC50, inhibition of PKC activity; cited from earlier work
PKA = conditions: data published 2002; read-out: IC50, inhibition of PKA activity; cited from earlier work
PKG = conditions: data published 2002; read-out: IC50, inhibition of PKG activity; cited from earlier work
OVCAR-3 tumour cells = OVCAR-3 tumour cells in which PKB is amplified; concentrations of 50 and 100 microM; cited from earlier work
[1] = Solid-state stability of crystalline L-lactate forms of compound of formula (1); assay type: physicochemical; conditions: lactic acid salts of compound of formula (1)
Text: The term ‘stable’ or ‘stability’ as used herein includes chemical stability and solid state (physical) stability. The term ‘chemical stability’ means that the compound can be stored in an isolated form, or in the form of a formulation in which it is provided in admixture with for example, pharmaceutically acceptable carriers, diluents or adjuvants as described herein, under normal storage conditions, with little or no chemical degradation or decomposition’ for example for a period of six months or more, more usually twelve months or more, for example eighteen months or more. ‘Solid-state stability’ means the compound can be stored in an isolated solid form, or the form of a solid formulation in which it is provided in admixture with, for example, pharmaceutically acceptable carriers, diluents or adjuvants as described herein, under normal storage conditions, with little or no solid-state transformation (e.g. hydration, dehydration, solvatisation, desolvatisation, crystallisation, recrystallisation or solid-state phase transition).

[2] = assay type: physicochemical
Text: Samples for X-ray powder diffraction (XRPD) data collection were gently ground by marble mortar and loaded into a crystallographic capillary (from Hampton Research, Quartz or Glass Type 10, 0.4 or 0.7 mm diameter). Diffraction patterns were collected at room temperature using CuKα radiation (λ=1.5418 Å) from a Rigaku rotating anode RU3HR, Osmic blue confocal optics, ¼ c goniometer and a Rigaku HTC image plate detector. 2D Images were collected while spinning φ axis with a detector to crystal distance of 250 mm. Data collection was controlled by CrystalClear software and 2D images were converted to 1D plot (2θ vs. Intensity) by Datasqueeze (intensity averaged over the azimuthal angle 0<χ<360° for 2θ range 3-30° in 0.02° steps). In house program AstexXRP was used for manipulation and visualisation of 1D XRPD patterns.
It is nominally a tri-hydrate because there are 3 crystal water positions in the asymmetric unit, but they are not 100% occupied at room temperature and laboratory humidity. A saturated solution of form FL1 in methanol:water 9:1 was prepared at room temperature. Slow precipitation with approximately 4 volumes of acetone gave form FL2 which is stable in air.
A saturated solution of form FL1 in THF was prepared at room temperature. Slow precipitation with approximately 4 volumes of heptane gave form FL3.

[3] = test system: P-glycoprotein-overexpressing subline of leukemic cell line CCRF-CEM; conditions: P-glycoprotein-overexpressing subline of CCRF-CEM (Chou et al. 1998); cited from earlier work
[4] = target: T1, Human Hsp90α N-terminal domain (Homo sapiens, UniProt P07900); assay: Isothermal titration calorimetry (ITC) binding to Hsp90; conditions: pH 7.4
T1 construct: purification of the Human Hsp90α N-terminal domain were performed according to published methods; made in house
Description: The ability of the compounds for use in the combinations of the invention to bind to human Hsp90 proteins was determined using isothermal titration calorimetry.
Isothermal titration calorimetry (ITC) experiments were performed with a VP-ITC titration calorimeter (Microcal Inc., Northampton, Mass., USA). […] All solutions were filtered and degassed prior to a titration being carried out. The enthalpy change resulting from each injection of ligand was obtained through integration of the calorimetric signal. Data were analysed using Origin 7.0 (Microcal Software Inc., Northampton, Mass.). Heats of dilution were estimated using the final injections of each individual titration and subtracted before data fitting. Different ITC experimental formats were employed in order to obtain compound dissociation constants (Kd's) over a wide range of affinities. […] In this type of experiment the stoichiometry parameter (N) was locked at 1 for data fitting.

[5] = mice; doses 10 times more than were needed for antitumour activity; cited from earlier work
[6] = clinical studies; cited from earlier work
[7] = Hygroscopicity and rate of solubility of salt forms of compound of formula (1); assay type: physicochemical
[8] = antitumour agent; cited from earlier work
[9] = test system: Acute Promyelocytic Leukemia (APL); conditions: cited from earlier work

With `CC(C)c1cc(C(=O)N2Cc3ccccc3C2)c(O)cc1O` [Example 5, (1,3-Dihydro-isoindol-2-yl)-(2,4-dihydroxy-5-isopropyl-phenyl)-methanone] the IC50 (HCT116 cell line) was < 1 µM.

For `O=S(=O)(NCCNCC=C(c1ccccc1)c1ccccc1)c1cccc2cnccc12` [NL-71-101], the IC50 (PKC) is given as 104 µM, the IC50 (PKA) is given as 9 µM and the IC50 (PKG) is given as 36 µM. The induction of apoptosis (OVCAR-3 tumour cells) was “induced apoptosis”.

For `CC(C)c1cc(C(=O)N2Cc3ccc(CN4CCN(C)CC4)cc3C2)c(O)cc1O` [FL2, (2,4-dihydroxy-5-isopropyl-phenyl)-[5-(4-methyl-piperazin-1-ylmethyl)-1,3-dihydro-isoindol-2-yl]-methanoneL-lactate], the “stability of crystalline form” value [1] was “stable” and the “stability of crystal form in air” value [2] was “stable in air”.

In the case of `C/C1=C/C[C@@H](/C(C)=C/c2csc(C)n2)OC(=O)C[C@H](O)C(C)(C)C(=O)[C@H](C)[C@@H](O)[C@@H](C)CCC1` [desoxyepothilone B], the IC50 [3] is given as 0.017 µM.

With `CC(C)c1cc(C(=O)N2Cc3ccc(CN4CCN(C)CC4)cc3C2)c(O)cc1O` [Example 55, (2,4-dihydroxy-5-isopropyl-phenyl)-[5-(4-methyl-piperazin-1-ylmethyl)-1,3-dihydro-isoindol-2-yl]-methanone] the Kd [4] was < 0.1 µM.

For `CCOC(=O)c1ccc2[nH]c3c(OC)c4[nH]c5ccc(C(=O)OCC)cc5c4cc3c2c1` [SR-13668], the “adverse effects in vivo” value [5] is listed as “no adverse effects”.

In the case of Perifosine [KRX-0401], the half-life [6] is given as ~100 h.

For `CC(C)c1cc(C(=O)N2Cc3ccc(CN4CCN(C)CC4)cc3C2)c(O)cc1O` [FL1, (2,4-dihydroxy-5-isopropyl-phenyl)-[5-(4-methyl-piperazin-1-ylmethyl)-1,3-dihydro-isoindol-2-yl]-methanoneL-lactate], the “stability of crystalline form” value [1] was “stable”, the “stability of crystal form at 40° C. and 75% RH” value [2] was “stable in air and at 40 °C and 75% RH for at least one month” and the “stability of crystal form in air” value [2] was “stable in air”.

In the case of `CC(C)c1cc(C(=O)N2Cc3ccc(CN4CCN(C)CC4)cc3C2)c(O)cc1O` [FL3, (2,4-dihydroxy-5-isopropyl-phenyl)-[5-(4-methyl-piperazin-1-ylmethyl)-1,3-dihydro-isoindol-2-yl]-methanoneL-lactate], the “stability of crystalline form” value [1] is reported as “unstable” and the “stability of crystal form in air” value ([2]; 2 days) is reported as “transforms in air into form FL1”.

With `CC(C)c1cc(C(=O)N2Cc3ccc(CN4CCN(C)CC4)cc3C2)c(O)cc1O` [(2,4-dihydroxy-5-isopropyl-phenyl)-[5-(4-methyl-piperazin-1-ylmethyl)-1,3-dihydro-isoindol-2-yl]-methanone L-lactate salt] the hygroscopicity [7] was “non-hygroscopic” and the rate of solubility ([7]; compared with free base and other salts tested (hydrochloric acid, sulphuric acid)) was “better rate of solubility than the free base and other salts tested”.

For `CC(C)c1cc(C(=O)N2Cc3ccc(C(=O)N4CCNCC4)cc3C2)c(O)cc1O` [Example 54, (2,4-dihydroxy-5-isopropyl-phenyl)-[5-(piperazine-1-carbonyl)-1,3-dihydro-isoindol-2-yl]-methanone hydrochloride], the IC50 (HCT116 cell line) was < 1 µM.

For `CCN[C@H]1CO[C@@H](O[C@H]2[C@H](O[C@H]3C#C/C=C\C#C[C@]4(O)CC(=O)C(NC(=O)OC)=C3/C4=C\CSSSC)O[C@H](C)[C@@H](NO[C@H]3C[C@H](O)[C@H](SC(=O)c4c(C)c(I)c(O[C@@H]5O[C@@H](C)[C@H](O)[C@@H](OC)[C@H]5O)c(OC)c4OC)[C@@H](C)O3)[C@@H]2O)C[C@@H]1OC` [Calicheamicin], the “potency relative to adriamycin” value [8] is given as “over 1,000 times”.

For `CC1=C(/C=C/C(C)=C/C=C/C(C)=C/C(=O)O)C(C)(C)CCC1` [Tretinoin, all-trans retinoic acid], the “remissions induced in APL patients” value [9] is listed as 64-100%.
